# In ChEMBL document CHEMBL3885861, “Open TG-GATES”:
# Species: Rattus norvegicus
# Experiment: Open TG-GATES - Regimen: Daily Repeat
# Type: toxicity, organism-based, Sprague-Dawley
# Set-up: regimen Daily Repeat, gender Male, age 6 weeks
# Conditions: in vivo, po, route gavage; for APTT / Bas / Eos / Fbg / Hb / Ht / Lym / MCH / MCHC / MCV / Mono / Neu / PT / Plat / RBC / Ret / WBC: tissue Blood; for LIVER: tissue Liver; for A/G / ALP / ALT / AST / BUN / CRE / Ca / Cl / DBIL / GLC / IP / K / LDH / Na / PL / RALB / TBIL / TC / TG / TP / gamma-GTP: tissue Plasma
# [1] = 0 mg/kg, 72 h, dose level Control, time 3 day
# [2] = 0 mg/kg, […], dose level Control, time 7 day
# [3] = 0 mg/kg, […], dose level Control, time 14 day
# [4] = 0 mg/kg, […], dose level Control, time 28 day
# [5] = 5 mg/kg, 72 h, dose level Low, time 3 day
# [6] = 5 mg/kg, […], dose level Low, time 7 day
# [7] = 5 mg/kg, […], dose level Low, time 14 day
# [8] = 5 mg/kg, […], dose level Low, time 28 day
structure (smiles),measurement,setting,value
C=C(C)[C@H]1Cc2c(ccc3c2O[C@@H]2COc4cc(OC)c(OC)cc4[C@@H]2C3=O)O1 [ROTENONE],TERMINAL_BW,[1],213.4 g
same,APTT,[1],16 s
same,Bas,[1],0%
same,Eos,[1],1%
same,Fbg,[1],211.8 mg/dL
same,Hb,[1],13.2 g/dL
same,Ht,[1],40.7%
same,Lym,[1],77.8%
same,MCH,[1],20.8 pg
same,MCHC,[1],32.4%
same,MCV,[1],64.1 fL
same,Mono,[1],7.8%
same,Neu,[1],14%
same,PT,[1],11.8 s
same,Plat,[1],118 x10_4/uL
same,RBC,[1],635 x10_4/ul
same,Ret,[1],6.1%
same,WBC,[1],92.8 x10_2/uL
same,LIVER,[1],10 g
same,A/G,[1],2.3
same,ALP,[1],1677.6 IU/L
same,ALT,[1],37.8 IU/L
same,AST,[1],67.4 IU/L
same,BUN,[1],18 mg/dL
same,CRE,[1],0.4 mg/dL
same,Ca,[1],11.3 mg/dL
same,Cl,[1],104.2 meq/L
same,DBIL,[1],0.014 mg/dL
same,GLC,[1],187.2 mg/dL
same,IP,[1],7.1 mg/dL
same,K,[1],4.4 meq/L
same,LDH,[1],96.6 IU/L
same,Na,[1],140.6 meq/L
same,PL,[1],141.8 mg/dL
same,RALB,[1],3.8 g/dL
same,TBIL,[1],0.042 mg/dL
same,TC,[1],77.6 mg/dL
same,TG,[1],105 mg/dL
same,TP,[1],5.5 g/dL
same,gamma-GTP,[1],0.4 IU/L
same,TERMINAL_BW,[2],254 g
same,TERMINAL_BW,[3],305.5 g
same,TERMINAL_BW,[4],378.4 g
same,APTT,[2],15.9 s
same,Bas,[2],0%
same,Eos,[2],1%
same,Fbg,[2],239.4 mg/dL
same,Hb,[2],13.2 g/dL
same,Ht,[2],40.2%
same,Lym,[2],80%
same,MCH,[2],21.1 pg
same,MCHC,[2],32.8%
same,MCV,[2],64.3 fL
same,Mono,[2],6%
same,Neu,[2],13.2%
same,PT,[2],11.6 s
same,Plat,[2],122.4 x10_4/uL
same,RBC,[2],626.2 x10_4/ul
same,Ret,[2],5.5%
same,WBC,[2],113.8 x10_2/uL
same,APTT,[3],14.9 s
same,Bas,[3],0%
same,Eos,[3],1%
same,Fbg,[3],241.8 mg/dL
same,Hb,[3],13.9 g/dL
same,Ht,[3],41.9%
same,Lym,[3],73.6%
same,MCH,[3],20.5 pg
same,MCHC,[3],33.1%
same,MCV,[3],61.8 fL
same,Mono,[3],4.6%
same,Neu,[3],21%
same,PT,[3],11.3 s
same,Plat,[3],125.6 x10_4/uL
same,RBC,[3],678.4 x10_4/ul
same,Ret,[3],3.8%
same,WBC,[3],106.4 x10_2/uL
same,APTT,[4],18 s
same,Bas,[4],0%
same,Eos,[4],1%
same,Fbg,[4],217.6 mg/dL
same,Hb,[4],14.9 g/dL
same,Ht,[4],45%
same,Lym,[4],72%
same,MCH,[4],19.7 pg
same,MCHC,[4],33.1%
same,MCV,[4],59.3 fL
same,Mono,[4],7.2%
same,Neu,[4],19.8%
same,PT,[4],12.5 s
same,Plat,[4],115 x10_4/uL
same,RBC,[4],758.8 x10_4/ul
same,Ret,[4],2%
same,WBC,[4],107.2 x10_2/uL
same,LIVER,[2],12.8 g
same,LIVER,[3],14.2 g
same,LIVER,[4],15.3 g
same,A/G,[2],2.1
same,ALP,[2],1286.8 IU/L
same,ALT,[2],35.2 IU/L
same,AST,[2],60.6 IU/L
same,BUN,[2],19 mg/dL
same,CRE,[2],0.4 mg/dL
same,Ca,[2],11.5 mg/dL
same,Cl,[2],104.6 meq/L
same,DBIL,[2],0.014 mg/dL
same,GLC,[2],195.4 mg/dL
same,IP,[2],7.7 mg/dL
same,K,[2],4.5 meq/L
same,LDH,[2],71.8 IU/L
same,Na,[2],140.4 meq/L
same,PL,[2],157.2 mg/dL
same,RALB,[2],3.9 g/dL
same,TBIL,[2],0.034 mg/dL
same,TC,[2],81.2 mg/dL
same,TG,[2],132.2 mg/dL
same,TP,[2],5.8 g/dL
same,gamma-GTP,[2],1 IU/L
same,A/G,[3],2.1
same,ALP,[3],1512 IU/L
same,ALT,[3],36.4 IU/L
same,AST,[3],67.2 IU/L
same,BUN,[3],18.4 mg/dL
same,CRE,[3],0.4 mg/dL
same,Ca,[3],11.5 mg/dL
same,Cl,[3],104.8 meq/L
same,DBIL,[3],0.01 mg/dL
same,GLC,[3],186 mg/dL
same,IP,[3],6.9 mg/dL
same,K,[3],4.5 meq/L
same,LDH,[3],111.6 IU/L
same,Na,[3],139.6 meq/L
same,PL,[3],156 mg/dL
same,RALB,[3],4 g/dL
same,TBIL,[3],0.03 mg/dL
same,TC,[3],80 mg/dL
same,TG,[3],131.8 mg/dL
same,TP,[3],5.9 g/dL
same,gamma-GTP,[3],1 IU/L
same,A/G,[4],2
same,ALP,[4],1248 IU/L
same,ALT,[4],32.2 IU/L
same,AST,[4],58.6 IU/L
same,BUN,[4],18.2 mg/dL
same,CRE,[4],0.4 mg/dL
same,Ca,[4],10.9 mg/dL
same,Cl,[4],106.8 meq/L
same,DBIL,[4],0.01 mg/dL
same,GLC,[4],182.2 mg/dL
same,IP,[4],5.7 mg/dL
same,K,[4],4.5 meq/L
same,LDH,[4],62.8 IU/L
same,Na,[4],141.2 meq/L
same,PL,[4],134.8 mg/dL
same,RALB,[4],3.8 g/dL
same,TBIL,[4],0.03 mg/dL
same,TC,[4],62 mg/dL
same,TG,[4],182.2 mg/dL
same,TP,[4],5.7 g/dL
same,gamma-GTP,[4],1 IU/L
same,TERMINAL_BW,[5],226.1 g
same,APTT,[5],17.7 s
same,Bas,[5],0%
same,Eos,[5],1%
same,Fbg,[5],212.2 mg/dL
same,Hb,[5],13 g/dL
same,Ht,[5],39.1%
same,Lym,[5],76.2%
same,MCH,[5],21.3 pg
same,MCHC,[5],33.2%
same,MCV,[5],64.1 fL
same,Mono,[5],5.6%
same,Neu,[5],17.2%
same,PT,[5],12.1 s
same,Plat,[5],129 x10_4/uL
same,RBC,[5],610.6 x10_4/ul
same,Ret,[5],7.7%
same,WBC,[5],114.4 x10_2/uL
same,LIVER,[5],11.2 g
same,A/G,[5],2.2
same,ALP,[5],1376 IU/L
same,ALT,[5],37.2 IU/L
same,AST,[5],67.4 IU/L
same,BUN,[5],19.2 mg/dL
same,CRE,[5],0.4 mg/dL
same,Ca,[5],11.6 mg/dL
same,Cl,[5],104.8 meq/L
same,DBIL,[5],0.014 mg/dL
same,GLC,[5],188.2 mg/dL
same,IP,[5],7.5 mg/dL
same,K,[5],4.5 meq/L
same,LDH,[5],111.2 IU/L
same,Na,[5],142.4 meq/L
same,PL,[5],152.4 mg/dL
same,RALB,[5],3.8 g/dL
same,TBIL,[5],0.032 mg/dL
same,TC,[5],85.6 mg/dL
same,TG,[5],78 mg/dL
same,TP,[5],5.6 g/dL
same,gamma-GTP,[5],0.4 IU/L
same,TERMINAL_BW,[6],258.8 g
same,TERMINAL_BW,[7],318.2 g
same,TERMINAL_BW,[8],393.8 g
same,APTT,[6],15.9 s
same,Bas,[6],0%
same,Eos,[6],0.8%
same,Fbg,[6],227.4 mg/dL
same,Hb,[6],13.4 g/dL
same,Ht,[6],40.6%
same,Lym,[6],68.2%
same,MCH,[6],21.5 pg
same,MCHC,[6],33%
same,MCV,[6],65.3 fL
same,Mono,[6],9.6%
same,Neu,[6],21.6%
same,PT,[6],11.6 s
same,Plat,[6],117.4 x10_4/uL
same,RBC,[6],622.8 x10_4/ul
same,Ret,[6],5.7%
same,WBC,[6],93.6 x10_2/uL
same,APTT,[7],15.7 s
same,Bas,[7],0%
same,Eos,[7],1%
same,Fbg,[7],238.2 mg/dL
same,Hb,[7],13.9 g/dL
same,Ht,[7],41.7%
same,Lym,[7],75.8%
same,MCH,[7],20.6 pg
same,MCHC,[7],33.2%
same,MCV,[7],62.2 fL
same,Mono,[7],5.2%
same,Neu,[7],18.4%
same,PT,[7],11.4 s
same,Plat,[7],130.8 x10_4/uL
same,RBC,[7],671.4 x10_4/ul
same,Ret,[7],3.8%
same,WBC,[7],138.2 x10_2/uL
same,APTT,[8],19 s
same,Bas,[8],0%
same,Eos,[8],1.2%
same,Fbg,[8],204.2 mg/dL
same,Hb,[8],14.7 g/dL
same,Ht,[8],44.3%
same,Lym,[8],74.6%
same,MCH,[8],19.3 pg
same,MCHC,[8],33.2%
same,MCV,[8],58.2 fL
same,Mono,[8],5%
same,Neu,[8],19.6%
same,PT,[8],12.6 s
same,Plat,[8],117.6 x10_4/uL
same,RBC,[8],761.4 x10_4/ul
same,Ret,[8],2.1%
same,WBC,[8],107.4 x10_2/uL
same,LIVER,[6],13.1 g
same,LIVER,[7],15.3 g
same,LIVER,[8],16.3 g
same,A/G,[6],2.1
same,ALP,[6],1367.8 IU/L
same,ALT,[6],39.6 IU/L
same,AST,[6],65 IU/L
same,BUN,[6],18.2 mg/dL
same,CRE,[6],0.4 mg/dL
same,Ca,[6],11.7 mg/dL
same,Cl,[6],103.2 meq/L
same,DBIL,[6],0.018 mg/dL
same,GLC,[6],202.2 mg/dL
same,IP,[6],7.4 mg/dL
same,K,[6],4.4 meq/L
same,LDH,[6],110.6 IU/L
same,Na,[6],140 meq/L
same,PL,[6],150.8 mg/dL
same,RALB,[6],3.8 g/dL
same,TBIL,[6],0.04 mg/dL
same,TC,[6],79.4 mg/dL
same,TG,[6],106.6 mg/dL
same,TP,[6],5.6 g/dL
same,gamma-GTP,[6],0.6 IU/L
same,A/G,[7],2.1
same,ALP,[7],1397.6 IU/L
same,ALT,[7],36.6 IU/L
same,AST,[7],68 IU/L
same,BUN,[7],19.4 mg/dL
same,CRE,[7],0.4 mg/dL
same,Ca,[7],11.8 mg/dL
same,Cl,[7],105 meq/L
same,DBIL,[7],0.012 mg/dL
same,GLC,[7],188.6 mg/dL
same,IP,[7],6.9 mg/dL
same,K,[7],4.6 meq/L
same,LDH,[7],142.4 IU/L
same,Na,[7],139.2 meq/L
same,PL,[7],164.2 mg/dL
same,RALB,[7],3.9 g/dL
same,TBIL,[7],0.03 mg/dL
same,TC,[7],85.4 mg/dL
same,TG,[7],152.4 mg/dL
same,TP,[7],5.8 g/dL
same,gamma-GTP,[7],1 IU/L
same,A/G,[8],1.8
same,ALP,[8],1025.4 IU/L
same,ALT,[8],33 IU/L
same,AST,[8],64.2 IU/L
same,BUN,[8],18 mg/dL
same,CRE,[8],0.4 mg/dL
same,Ca,[8],10.7 mg/dL
same,Cl,[8],105.8 meq/L
same,DBIL,[8],0.01 mg/dL
same,GLC,[8],175.2 mg/dL
same,IP,[8],6.2 mg/dL
same,K,[8],4.5 meq/L
same,LDH,[8],101.8 IU/L
same,Na,[8],141.2 meq/L
same,PL,[8],134.8 mg/dL
same,RALB,[8],3.8 g/dL
same,TBIL,[8],0.032 mg/dL
same,TC,[8],65.6 mg/dL
same,TG,[8],143 mg/dL
same,TP,[8],6 g/dL
same,gamma-GTP,[8],1 IU/L
